What was measured:
[1] = biological target: T1, EGFR L858R/T790M/C797S (BaF3-LTC cells) (Homo sapiens, UniProt P00533, C797S/L858R/T790M); assay: EGFR degradation HTRF assay, BaF3-LTC cells; format: cell-based; settings: BaF3-LTC cells; for DC50: EGFR degradation, IC50 (DC50) from curve fit, read-out: DC50(nM) BaF3-LTC; for Dmax: maximum percentage of inhibition (degradation), read-out: Dmax (%) BaF3-LTC
T1 construct: expressed in transfected cells; host or cells: BaF3
In short: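 Cells treated 16 h at 37 °C, 5% CO2 in medium with 0.2% DMSO; top final concentration 10 uM, 5-fold dilution, 8 doses. Lysates read by HTRF (665/620 nm); degradation % versus DMSO high control, DC50 from four-parameter fit, Dmax as maximal degradation.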

[2] = test system: EGFR Del19/T790M/C797S (H1975-clone #28); assay: EGFR degradation HTRF assay, H1975-clone #28 DTC cells; format: cell-based; settings: H1975 # 28 DTC cells; for DC50: EGFR degradation, IC50 (DC50) from curve fit, read-out: DC50(nM) H1975 # 28 DTC; for Dmax (%) H1975 # 28 DTC: maximum percentage of inhibition (degradation)
In short: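 Cells were dosed on day 2 with an 8-point, 5-fold dilution series starting at 10 uM final and incubated 16h at 37° C. After lysis for 1 hour, HTRF antibodies were added overnight at room temperature and the plate was read at 665/620 nm. Degradation was normalised to DMSO wells and fitted for DC50 and Dmax.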

T1 sequence (P00533 25-1210 T790M/C797S/L858R): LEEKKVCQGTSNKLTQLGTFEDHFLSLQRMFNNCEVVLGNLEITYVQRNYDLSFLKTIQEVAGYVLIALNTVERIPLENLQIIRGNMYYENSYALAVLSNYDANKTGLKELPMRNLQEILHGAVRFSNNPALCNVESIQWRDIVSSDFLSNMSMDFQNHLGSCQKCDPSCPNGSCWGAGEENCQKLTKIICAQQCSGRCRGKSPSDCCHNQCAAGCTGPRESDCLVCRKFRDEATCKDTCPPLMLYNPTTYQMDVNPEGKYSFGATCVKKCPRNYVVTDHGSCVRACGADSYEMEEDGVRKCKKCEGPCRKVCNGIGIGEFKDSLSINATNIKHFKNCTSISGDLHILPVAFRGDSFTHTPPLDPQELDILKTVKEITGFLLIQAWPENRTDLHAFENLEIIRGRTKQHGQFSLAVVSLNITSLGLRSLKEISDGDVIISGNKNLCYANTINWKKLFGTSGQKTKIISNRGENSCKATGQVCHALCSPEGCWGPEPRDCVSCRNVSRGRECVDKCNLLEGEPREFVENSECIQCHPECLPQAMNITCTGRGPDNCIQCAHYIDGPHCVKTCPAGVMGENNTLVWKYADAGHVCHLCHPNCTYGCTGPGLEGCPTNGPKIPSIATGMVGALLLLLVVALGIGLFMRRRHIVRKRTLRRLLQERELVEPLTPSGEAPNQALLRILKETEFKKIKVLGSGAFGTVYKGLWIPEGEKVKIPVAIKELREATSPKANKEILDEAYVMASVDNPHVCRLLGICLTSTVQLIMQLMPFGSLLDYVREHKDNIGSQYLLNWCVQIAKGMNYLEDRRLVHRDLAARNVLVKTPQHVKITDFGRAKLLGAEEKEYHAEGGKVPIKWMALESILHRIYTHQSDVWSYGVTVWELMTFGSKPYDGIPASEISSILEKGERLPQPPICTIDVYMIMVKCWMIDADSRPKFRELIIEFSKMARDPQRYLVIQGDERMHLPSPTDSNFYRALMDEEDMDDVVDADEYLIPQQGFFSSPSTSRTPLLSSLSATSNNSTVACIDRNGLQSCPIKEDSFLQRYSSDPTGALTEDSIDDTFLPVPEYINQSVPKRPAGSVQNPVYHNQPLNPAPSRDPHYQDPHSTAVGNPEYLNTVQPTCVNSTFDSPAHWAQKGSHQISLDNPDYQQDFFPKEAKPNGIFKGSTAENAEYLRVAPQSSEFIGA

Row | SMILES | DC50 [1] | Dmax [1] | DC50 [2] | Dmax (%) H1975 # 28 DTC [2]
1 | CCc1cc(Nc2ncc(Br)c(Nc3ccc4nc(C)ccc4c3P(C)(C)=O)n2)c(OC)cc1N1CCC(N2CCN(CCOc3cccc4c3n(C)c(=O)n4C3CCC(=O)NC3=O)CC2)CC1 (stereo not drawn) [Example 683, 3-(4-(2-(4-(1-(4-((5-bromo-4-((5-(dimethylphosphoryl)-2-methylquinolin-6-yl)amino)pyrimidin-2-yl)amino)-2-ethyl-5-methoxyphenyl)piperidin-4-yl)piperazin-1-yl)ethoxy)-3-methyl-2-oxo-2,3-dihydro-1H-benzo[d]imidazol-1-yl)piperidine-2,6-dione] | 1.11 nM | 95.9% | 0.595 nM | 75.35%
2 | CCc1cc(Nc2ncc(Br)c(Nc3ccc4c(C)nccc4c3P(C)(C)=O)n2)c(OC)cc1N1CCC(N2CCN(CCc3cc(F)c([C@H]4CCC(=O)NC4=O)c(F)c3)CC2)CC1 [Example 684, (R)-3-(4-(2-(4-(1-(4-((5-bromo-4-((5-(dimethylphosphoryl)-1-methylisoquinolin-6-yl)amino)pyrimidin-2-yl)amino)-2-ethyl-5-methoxyphenyl)piperidin-4-yl)piperazin-1-yl)ethyl)-2,6-difluorophenyl)piperidine-2,6-dione] | 12.4 nM | 91.4% | 1.06 nM | 88.35%
3 | CCc1cc(Nc2ncc(Br)c(Nc3ccc4c(c3P(C)(C)=O)OCCO4)n2)c(OC)cc1N1CCC(N2CCN(C(=O)[C@@H]3CCN(c4cc(F)c([C@H]5CCC(=O)NC5=O)c(F)c4)C3)CC2)CC1 [Example 686, (R)-3-(4-((R)-3-(4-(1-(4-((5-bromo-4-((5-(dimethylphosphoryl)-2,3-dihydrobenzo[b][1,4]dioxin-6-yl)amino)pyrimidin-2-yl)amino)-2-ethyl-5-methoxyphenyl)piperidin-4-yl)piperazine-1-carbonyl)pyrrolidin-1-yl)-2,6-difluorophenyl)piperidine-2,6-dione] | 4.89 nM | 96.6% | 1.76 nM | 88.73%
4 | COc1cc(N2CCC(N3CC(C(=O)N4CCC(c5cc(F)c(C6CCC(=O)NC6=O)c(F)c5)CC4)C3)CC2)c(C)cc1Nc1ncc(Br)c(Nc2ccc3nc(C)ccc3c2P(C)(C)=O)n1 (stereo not drawn) [Example 687, 3-(4-(1-(1-(1-(4-((5-bromo-4-((5-(dimethylphosphoryl)-2-methylquinolin-6-yl)amino)pyrimidin-2-yl)amino)-5-methoxy-2-methylphenyl)piperidin-4-yl)azetidine-3-carbonyl)piperidin-4-yl)-2,6-difluorophenyl)piperidine-2,6-dione] | 14.8 nM | 93.3% | 1.38 nM | 68.75%

Second part, led by results:

Row | DC50 [1] | Dmax [1] | DC50 [2] | SMILES | Dmax (%) H1975 # 28 DTC [2]
5 | 6.79 nM | 95% | 0.91 nM | CCc1cc(Nc2ncc(Br)c(Nc3ccc4nc(C#N)ccc4c3P(C)(C)=O)n2)c(OC)cc1N1CCC(N2CCN(CCc3cc(F)c([C@H]4CCC(=O)NC4=O)c(F)c3)CC2)CC1 [Example 682, (R)-6-((5-bromo-2-((4-(4-(4-(4-(2,6-dioxopiperidin-3-yl)-3,5-difluorophenethyl)piperazin-1-yl)piperidin-1-yl)-5-ethyl-2-methoxyphenyl)amino)pyrimidin-4-yl)amino)-5-(dimethylphosphoryl)quinoline-2-carbonitrile] | 87.08%
6 | 5.29 nM | 95% | 0.787 nM | CCc1cc(Nc2ncc(Br)c(Nc3ccc4nc(C)sc4c3P(C)(C)=O)n2)c(OC)cc1N1CCC(N2CCN(C(=O)[C@@H]3CCN(c4cc(F)c([C@H]5CCC(=O)NC5=O)c(F)c4)C3)CC2)CC1 [Example 685, (R)-3-(4-((R)-3-(4-(1-(4-((5-bromo-4-((7-(dimethylphosphoryl)-2-methylbenzo[d]thiazol-6-yl)amino)pyrimidin-2-yl)amino)-2-ethyl-5-methoxyphenyl)piperidin-4-yl)piperazine-1-carbonyl)pyrrolidin-1-yl)-2,6-difluorophenyl)piperidine-2,6-dione] | 83.23%

Reference: US20230265116A1, “DEGRADATION OF (EGFR) BY CONJUGATION OF EGFR INHIBITORS WITH E3 LIGASE LIGAND AND METHODS OF USE” (BEIGENE, LTD., priority 2020, published 2023)
